One test deals with CD8^+ T cells. The class given is cell-based, human.
In test [1] the test system is memory CD8^+ T cells within PBMCs. The class given is cell-based, human.

No end group written: not given here.

Turning to “GILGFVFVL [M158-66, GILGFVFVL, reference compound]”, the “additional low avidity CD8^+ T cells detected by Q115E staining” value in the test with CD8^+ T cells is “could be detected”.

Turning to “VADGGPNIY (Influenza B virus) [BPB1590-598, IBV variant of PB1591-599]”, in test [1], the “cross-reactivity of CD8^+ T cells after in vitro expansion with the peptide” value is given as “could not expand CD8^+ T cells” and the “recognition of IBV-derived variant by IAV-expanded CD8^+ T cells” value is “to a lesser extent”.

For the sequence “VSDGGPNLY (Influenza A virus) [PB1591-599]”, the “cross-reactivity of CD8^+ T cells after in vitro expansion with the peptide” value in test [1] is “recognizing both IAV- and IBV-derived peptides”.

(Values after patent publication US11517617B2, “Methods and compositions for preventing influenza infection” (THE UNIVERSITY OF MELBOURNE, priority 2017, dated 2022).)
